The target in the first series is T1, human p38 kinase alpha (Homo sapiens, UniProt Q16539).
T1 construct: The coding region of the human p38 cDNA was obtained by PCR-amplification from RNA isolated from the human monocyte cell line THP.1; GST (N); made in house; host or cells: E. coli DH10B
T1 sequence (Q16539 whole entry): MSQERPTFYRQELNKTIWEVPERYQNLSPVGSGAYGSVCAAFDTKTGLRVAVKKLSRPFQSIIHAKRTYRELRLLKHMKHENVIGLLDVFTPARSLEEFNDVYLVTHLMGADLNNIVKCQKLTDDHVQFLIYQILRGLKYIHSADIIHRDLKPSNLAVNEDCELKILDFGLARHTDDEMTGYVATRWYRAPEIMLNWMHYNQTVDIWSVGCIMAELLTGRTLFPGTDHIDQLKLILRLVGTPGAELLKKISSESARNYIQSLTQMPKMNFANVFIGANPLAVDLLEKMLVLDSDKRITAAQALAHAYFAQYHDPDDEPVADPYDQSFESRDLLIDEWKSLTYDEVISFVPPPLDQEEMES
Description: p38 kinase in vitro assay. It counts as biochemical. As to conditions: Table I; average of n trials, n=1 if not reported; read-out: p38 Alpha IC50. The protocol: The ability of compounds to inhibit human p38 kinase alpha was evaluated using two in vitro assay methods. In the first method, activated human p38 kinase alpha phosphorylates a biotinylated substrate, PHAS-I (phosphorylated heat and acid stable protein-insulin inducible), in the presence of gamma ^32p-ATP (^32P-ATP). PHAS-I was biotinylated prior to the assay and provides a means of capturing the substrate, which is phosphorylated during the assay. p38 Kinase was activated by MKK6. Compounds were tested in 10 fold serial dilutions over the range of 100 μM to 0,001 μM using 1% DMSO. Each concentration of inhibitor was tested in triplicate.
All reactions were carried out in 96 well polypropylene plates. Each reaction well contained 25 mM HEPES pH 7.5, 10 mM magnesium acetate and 50 μM unlabeled ATP. […] Activated human p38 kinase alpha was used at 1 μg per 50 μl reaction volume representing a final concentration of 0.3 μM. Gamma ^32P-ATP was used to follow the phosphorylation of PHAS-I. ^32P-ATP has a specific activity of 3000 Ci/mmol and was used at 1.2 μCi per 50 μl reaction volume. The reaction proceeded either for one hour or overnight at 30° C.
Following incubation, 20 μl of reaction mixture was transferred to a high capacity streptavidin coated filter plate (SAM-streptavidin-matrix, Promega) prewetted with phosphate buffered saline, The transferred reaction mix was allowed to contact the streptavidin membrane of the Promega plate for 1-2 minutes. […] Filter plates were air-dried and 20 μl of scintillant was added. The plates were sealed and counted.
A second assay format was also employed that is based on p38 kinase alpha induced phosphorylation of EGFRP (epidermal growth factor receptor peptide, a 21 mer) in the presence ^33P-ATP. Compounds were tested in 10 fold serial dilutions over the range of 100 μM to 0.001 μM in 1% DMSO. Each concentration of inhibitor was tested in triplicate. Compounds were evaluated in 50 μl reaction volumes in the presence of 25 mM Hepes pH 7.5, 10 mM magnesium acetate, 4% glycerol, 0.4% bovine serum albumin, 0.4 mM DTT, 50 μM unlabeled ATP, 25 μg EGFRP (200 μM), and 0.05 μCi ^33p-ATP. Reactions were initiated by addition of 0.09 μg of activated, purified human GST-p38 kinase alpha. Activation was carried out using GST-MKK6 (5:1,p38:MKK6) for one hour at 30° C. in the presence of 50 μM ATP. Following incubation for 60 minutes at room temperature, the reaction was stopped by addition of 150 μl of AG 1×8 resin in 900 mM sodium formate buffer, pH 3.0 (1 volume resin to 2 volumes buffer). The mixture was mixed three times with pipetting and the resin was allowed to settle. A total of 50 μl of clarified solution head volume was transferred from the reaction wells to Microlite-2 plates. 150 μl of Microscint 40 was then added to each well of the Microlite plate, and the plate was sealed, mixed, and counted.
Take `Cc1cc(OCc2ccccc2)c(Br)c(=O)n1Cc1ccccc1` [K]: the IC50 amounted to 219 nM.

For `COc1cccc(Cn2ccc(OCc3ccc(F)cc3F)c(Br)c2=O)c1` [Example S], the IC50 worked out at 498 nM.

Take `N#Cc1ccc(Cn2ccc(OCc3ccccc3)c(Br)c2=O)cc1` [CC]: the IC50 turned out to be 536 nM.

Take `O=C(O)c1ccc(Cn2ccc(OCc3ccccc3)c(Br)c2=O)cc1` [T]: the IC50 amounted to 423 nM.

With `Cc1cc(OCc2ccc(F)cc2)c(Br)c(=O)n1-c1c(Cl)cccc1Cl` [P], the IC50 was determined as 403 nM.

Consider `Cc1cccc(C)c1-n1c(C)cc(OCc2ccc(F)cc2)c(Br)c1=O` [V], for which the IC50 came out at 455 nM.

As to `O=c1c(Br)c(OCc2ccccc2)ccn1Cc1ccc(Br)cc1` [FF], the IC50 came to 581 nM.

Take `Cc1cc(OCc2ccc(F)cc2F)c(Br)c(=O)n1-c1c(Cl)cccc1Cl` [G]: the IC50 is 179 nM.

Consider `O=c1c(Br)c(OCc2ccc(F)cc2)ccn1Cc1cccc(F)c1` [BB], for which the IC50 worked out at 632 nM.

Still in this series, the particulars now being: Table II; several values in a cell = repeat determinations; read-out: p38A.
For the compound `O=c1c(Br)c(OCc2ccc(F)cc2)ccn1Cc1cccc(Cl)c1` [UU], the IC50 was determined as 1140 nM.

For the compound `O=c1c(Br)c(OCc2ccc(Cl)cc2)ccn1Cc1ccccc1` [MM], the IC50 was 1380 nM.

Take `O=c1c(Br)c(OCc2ccccc2C(F)(F)F)ccn1Cc1ccccc1` [CCCC]: the IC50 came to 77600 nM.

Take `O=c1c(Br)c(SCc2ccccc2)ccn1Cc1ccccc1` [BBBB]: the IC50 was 3600 nM.

Turning to `Cn1ccc(OCc2ccccc2)c(Br)c1=O` [GGG], the IC50 is 13200 nM.

On to `O=c1c(Br)c(OCc2ccccc2)ccn1CC1CCNCC1` [III], for which the IC50 is 90900 nM.

With `Cc1ccc(COc2ccn(Cc3ccccc3)c(=O)c2Br)cc1` [LL], the IC50 was 1730 nM.

For the compound `O=c1c(Br)c(OCc2ccccc2Cl)ccn1Cc1ccccc1` [NN], the IC50 is 2030 nM.

`O=c1c(Br)c(OCc2ccccc2)ccn1CCc1cccs1` [YYY]: the IC50 came to 2230 nM.

With `O=c1c(Br)c(OCc2c(Cl)cccc2Cl)ccn1Cc1ccccc1` [VV], the IC50 is 14300 nM.

Still in this series, the particulars now being: Table III; n = number of times assayed, n=1 if not reported; read-out: p38 Alpha IC50.
As for `Cc1cc(CCc2ccccc2)c(Br)c(=O)n1Cc1cccc(F)c1` [LLLLL], the IC50 is 1710 nM.

Regarding `Cc1cc(OCc2c(F)cccc2F)c(Br)c(=O)n1Cc1ccncc1` [EEEEE], the IC50 amounted to 684 nM.

In the case of `O=c1c(Br)c(NCc2ccccc2)ccn1Cc1cccc(F)c1` [HHHHH], the IC50 amounted to 1180 nM.

Regarding `Cc1cccc(C)c1-n1ccc(OCc2ccc(F)cc2)c(Br)c1=O` [BBBBB], the IC50 stood at 455 nM.

`O=c1c(I)c(OCc2ccccc2)ccn1Cc1cccc(F)c1` [PPPPP]: the IC50 is 1760 nM.

As for `Cc1cc(OCc2cccc(Cl)c2)c(Br)c(=O)n1Cc1ccccc1` [OOOOO], the IC50 was determined as 1600 nM.

Test system in a further series: not given
Test: not given
Details: not given
On to `Cc1ccc(COc2ccn(Cc3ccccc3)c(=O)c2Br)cc1` [Example 44, 1-Benzyl-3-bromo-4-[(4-methylbenzyl)oxy]pyridin-2(1H)-one], for which the melting point was 149 to 149.7 °C.

In the case of `O=c1c(Br)c(OCc2c(Cl)cccc2Cl)ccn1Cc1ccccc1` [Example 461, 1-Benzyl-3-bromo-4-[2,6-(dichlorobenzyl)oxy]pyridin-2(1H)-one], the melting point lay within 156.3 to 157.9 °C.

In turn, `O=c1c(Br)c(SCc2ccccc2)ccn1Cc1ccccc1` [Example 46] had a melting point of 180.6 to 182.1 °C.

In turn, `O=c1cc(OCc2cccc(Cl)c2)ccn1Cc1ccccc1` [Example 45, 1-Benzyl-4-[(3-chlorobenzyl)oxy]pyridin-2(1H)-one] displayed a melting point of 95.5 to 95.7 °C.

For the compound `O=c1c(Br)c(OCc2ccccc2C(F)(F)F)ccn1Cc1ccccc1` [Example 47, 1-Benzyl-3-bromo-4-{[2-(trifluoromethyl)benzyl]oxy}pyridin-2(1H)-one], the melting point is 133.2 to 133.5 °C.

Compound `O=c1c(Br)c(OCc2ccccc2)ccn1CCc1ccsc1` [Example 29, 4-(benzyloxy)-3-bromo-1-(2-thien-3-ylethyl)pyridin-2(1H)-one] came in with a melting point of 134 to 134.3 °C.

For the compound `O=c1cc(OCc2ccccc2Cl)ccn1Cc1ccccc1` [Example 42, 1-Benzyl-4-[(2-chlorobenzyl)oxy]pyridin-2(1H)-one], the melting point lay within 124.6 to 125 °C.

For orientation: melting point means the temperature, or range, at which the solid turns liquid.

The values are drawn from US20070088033A1, “Diaryl Substituted Pyridinones” (priority 2002, published 2007).
